Results taken from US11319299B2, “Substituted carboxamides as inhibitors of WDR5 protein-protein binding” (PROPELLON THERAPEUTICS INC., priority 2016, dated 2022).
pKd: −log10 of the molar value.

What follows are compounds tested against WDR5 (Homo sapiens (Human), UniProt P61964) (assay: Surface Plasmon Resonance (SPR) assay, KD and residence time). Details: surface plasmon resonance (SPR); read-out: WDR5 binding affinity (KD).
Format: binding

Q: C[C@@H]1CN(c2ccc(-c3cc(NC(=O)c4cn(C)c(=O)cc4C(F)F)c(N4CCN(C)[C@@H](C)C4)cc3F)cn2)C[C@H](C)O1 [Example 515, 4-(difluoromethyl)-N-[4-fluoro-5-[6-[(2R,6S)-2,6-dimethylmorpholin-4-yl]pyridin-3-yl]-2-[(3S)-3,4-dimethylpiperazin-1-yl]phenyl]-1-methyl-6-oxopyridine-3-carboxamide] was tested. Which pKd did it give?
A: Its pKd is 8.39.

Q: With C[C@@H]1CN(c2ccc(-c3cc(NC(=O)c4cn(C)c(=O)cc4C(F)F)c(N4CCN(C)[C@@H](C)C4)cc3F)cn2)CCO1 [Example 516, 4-(difluoromethyl)-N-[4-fluoro-2-[(3S)-3,4-dimethylpiperazin-1-yl]-5-[6-[(2R)-2-methylmorpholin-4-yl]pyridin-3-yl]phenyl]-1-methyl-6-oxopyridine-3-carboxamide] as the compound, how does the pKd read?
A: The pKd was 8.40.

Q: C[C@@H]1CN(c2cc(F)c(-c3csc(C(=O)NCC4CC4)n3)cc2NC(=O)c2cn(C)c(=O)cc2C(F)(F)F)C[C@H](C)N1C [Example 523, N-(cyclopropylmethyl)-4-[2-fluoro-5-[[1-methyl-6-oxo-4-(trifluoromethyl)pyridine-3-carbonyl]amino]-4-[(3R,5S)-3,4,5-trimethylpiperazin-1-yl]phenyl]-1,3-thiazole-2-carboxamide] was tested. Which pKd did it give?
A: The pKd was 8.34.

Q: With C[C@@H]1CN(c2cc(F)c(-c3csc(C(=O)N(C)CC4CC4)n3)cc2NC(=O)c2cn(C)c(=O)cc2C(F)(F)F)C[C@H](C)N1C [Example 524, N-(cyclopropylmethyl)-4-[2-fluoro-5-[[-methyl-6-oxo-4-(trifluoromethyl)pyridine-3-carbonyl]amino]-4-[(3R,5S)-3,4,5-trimethylpiperazin-1-yl]phenyl]-N-methyl-1,3-thiazole-2-carboxamide] as the compound, how does the pKd read?
A: Its pKd is 8.30.

Q: With C[C@@H]1CN(c2cc(F)c(-c3csc(C(=O)NC4CCCCC4)n3)cc2NC(=O)c2cn(C)c(=O)cc2C(F)(F)F)C[C@H](C)N1C [Example 525, N-cyclohexyl-4-[2-fluoro-5-[[1-methyl-6-oxo-4-(trifluoromethyl)pyridine-3-carbonyl]amino]-4-[(3R,5S)-3,4,5-trimethylpiperazin-1-yl]phenyl]-1,3-thiazole-2-carboxamide] as the compound, how does the pKd read?
A: The pKd was 8.27.

Q: C[C@@H]1CN(c2cc(F)c(-c3csc(C(=O)N(C)C4CCCCC4)n3)cc2NC(=O)c2cn(C)c(=O)cc2C(F)(F)F)C[C@H](C)N1C [Example 526, N-cyclohexyl-4-[2-fluoro-5-[[1-methyl-6-oxo-4-(trifluoromethyl)pyridine-3-carbonyl]amino]-4-[(3R,5S)-3,4,5-trimethylpiperazin-1-yl]phenyl]-N-methyl-1,3-thiazole-2-carboxamide] was tested. Which pKd did it give?
A: Its pKd is 8.31.

Q: With C[C@@H]1CN(c2cc(F)c(-c3csc(C(=O)N4CCOCC4)n3)cc2NC(=O)c2cn(C)c(=O)cc2C(F)(F)F)C[C@H](C)N1C [Example 527, N-[4-fluoro-5-[2-(morpholine-4-carbonyl)-1,3-thiazol-4-yl]-2-[(3R,5S)-3,4,5-trimethylpiperazin-1-yl]phenyl]-1-methyl-6-oxo-4-(trifluoromethyl)pyridine-3-carboxamide] as the compound, how does the pKd read?
A: Its pKd is 8.25.

Q: How did the pKd turn out when C[C@@H]1CN(c2cc(F)c(-c3csc(C(=O)N4CCN(C)CC4)n3)cc2NC(=O)c2cn(C)c(=O)cc2C(F)(F)F)C[C@H](C)N1C [Example 528, N-[4-fluoro-5-[2-(4-methylpiperazine-1-carbonyl)-1,3-thiazol-4-yl]-2-[(3R,5S)-3,4,5-trimethylpiperazin-1-yl]phenyl]-1-methyl-6-oxo-4-(trifluoromethyl)pyridine-3-carboxamide] was run?
A: The pKd was 8.39.

Q: With C[C@@H]1CN(c2cc(F)c(-c3csc(C(=O)NCC4CC4)n3)cc2NC(=O)c2c[nH]c(=O)cc2C(F)(F)F)C[C@H](C)N1C [Example 531, N-(cyclopropylmethyl)-4-[2-fluoro-5-[[6-oxo-4-(trifluoromethyl)-1H-pyridine-3-carbonyl]amino]-4-[(3R,5S)-3,4,5-trimethylpiperazin-1-yl]phenyl]-1,3-thiazole-2-carboxamide] as the compound, how does the pKd read?
A: Its pKd is 8.97.

Q: C[C@@H]1CN(c2cc(F)c(-c3csc(C(=O)NC4CCCCC4)n3)cc2NC(=O)c2c[nH]c(=O)cc2C(F)(F)F)C[C@H](C)N1C [Example 533, N-cyclohexyl-4-[2-fluoro-5-[[6-oxo-4-(trifluoromethyl)-1H-pyridine-3-carbonyl]amino]-4-[(3R,5S)-3,4,5-trimethylpiperazin-1-yl]phenyl]-1,3-thiazole-2-carboxamide] was tested. Which pKd did it give?
A: The pKd was 8.70.

Q: C[C@@H]1CN(c2cc(F)c(-c3csc(C(=O)N(C)C4CCCCC4)n3)cc2NC(=O)c2c[nH]c(=O)cc2C(F)(F)F)C[C@H](C)N1C [Example 534, N-cyclohexyl-4-[2-fluoro-5-[[6-oxo-4-(trifluoromethyl)-1H-pyridine-3-carbonyl]amino]-4-[(3R,5S)-3,4,5-trimethylpiperazin-1-yl]phenyl]-N-methyl-1,3-thiazole-2-carboxamide] was tested. Which pKd did it give?
A: Its pKd is 8.88.

Q: C[C@@H]1CN(c2cc(F)c(-c3csc(C(=O)N4CCOCC4)n3)cc2NC(=O)c2c[nH]c(=O)cc2C(F)(F)F)C[C@H](C)N1C [Example 535, N-[4-fluoro-5-[2-(morpholine-4-carbonyl)-1,3-thiazol-4-yl]-2-[(3R,5S)-3,4,5-trimethylpiperazin-1-yl]phenyl]-6-oxo-4-(trifluoromethyl)-1H-pyridine-3-carboxamide] was tested. Which pKd did it give?
A: Its pKd is 8.55.

Q: C[C@@H]1CN(c2cc(F)c(-c3csc(C(=O)N4CCN(C)CC4)n3)cc2NC(=O)c2c[nH]c(=O)cc2C(F)(F)F)C[C@H](C)N1C [Example 536, N-[4-fluoro-5-[2-(4-methylpiperazine-1-carbonyl)-1,3-thiazol-4-yl]-2-[(3R,5S)-3,4,5-trimethylpiperazin-1-yl]phenyl]-6-oxo-4-(trifluoromethyl)-1H-pyridine-3-carboxamide] was tested. Which pKd did it give?
A: The pKd was 8.99.

Q: How did the pKd turn out when C[C@@H]1CN(c2cc(F)c(-c3ccnc(NC4CCCCC4)n3)cc2NC(=O)c2c[nH]c(=O)cc2C(F)(F)F)C[C@H](C)N1C [Example 537, N-[5-[2-(cyclohexylamino)pyrimidin-4-yl]-4-fluoro-2-[(3R,5S)-3,4,5-trimethylpiperazin-1-yl]phenyl]-6-oxo-4-(trifluoromethyl)-1H-pyridine-3-carboxamide] was run?
A: The pKd was 9.03.

Q: CNc1nccc(-c2cc(NC(=O)c3c[nH]c(=O)cc3C(F)(F)F)c(N3C[C@@H](C)N(C)[C@@H](C)C3)cc2F)n1 [Example 538, N-[4-fluoro-5-[2-(methylamino)pyrimidin-4-yl]-2-[(3R,5S)-3,4,5-trimethylpiperazin-1-yl]phenyl]-6-oxo-4-(trifluoromethyl)-1H-pyridine-3-carboxamide] was tested. Which pKd did it give?
A: Its pKd is 8.52.

Q: C[C@@H]1CN(c2cc(F)c(-c3ccnc(C#N)n3)cc2NC(=O)c2c[nH]c(=O)cc2C(F)(F)F)C[C@H](C)N1C [Example 539, N-[5-(2-cyanopyrimidin-4-yl)-4-fluoro-2-[(3R,5S)-3,4,5-trimethylpiperazin-1-yl]phenyl]-6-oxo-4-(trifluoromethyl)-1H-pyridine-3-carboxamide] was tested. Which pKd did it give?
A: The pKd was 8.59.

Q: How did the pKd turn out when CNC1CCN(c2cc(F)c(-c3cnc(N4CCOCC4)nc3)cc2NC(=O)c2c[nH]c(=O)cc2C(F)(F)F)CC1 [Example 541, N-[4-fluoro-2-[4-(methylamino)piperidin-1-yl]-5-(2-morpholin-4-ylpyrimidin-5-yl)phenyl]-6-oxo-4-(trifluoromethyl)-1H-pyridine-3-carboxamide] was run?
A: The pKd was 8.13.

Q: How did the pKd turn out when C[C@@H]1CN(c2ccc(-c3cc(NC(=O)c4cn(C)c(=O)cc4C(F)F)c(N4C[C@@H](C)N(C)[C@@H](C)C4)cc3F)cn2)CCO1 [Example 542, 4-(difluoromethyl)-N-[4-fluoro-5-[6-[(2R)-2-methylmorpholin-4-yl]pyridin-3-yl]-2-[(3R,5S)-3,4,5-trimethylpiperazin-1-yl]phenyl]-1-methyl-6-oxopyridine-3-carboxamide] was run?
A: The pKd was 8.26.

Q: With C[C@@H]1CN(c2ncc(-c3cc(NC(=O)c4cn(C)c(=O)cc4C(F)(F)F)c(N4CCN(C)[C@@H](C)C4)cc3F)cn2)CCO1 [Example 544, N-[4-fluoro-2-[(3S)-3,4-dimethylpiperazin-1-yl]-5-[2-[(2R)-2-methylmorpholin-4-yl]pyrimidin-5-yl]phenyl]-1-methyl-6-oxo-4-(trifluoromethyl)pyridine-3-carboxamide] as the compound, how does the pKd read?
A: The pKd was 8.74.

Q: C[C@@H]1CN(c2ncc(-c3cc(NC(=O)c4ccc(F)cc4C(F)(F)F)c(N4C[C@@H](C)N(C)[C@@H](C)C4)cc3F)cn2)CCO1 [Example 545, 4-fluoro-N-[4-fluoro-5-[2-[(2R)-2-methylmorpholin-4-yl]pyrimidin-5-yl]-2-[(3R,5S)-3,4,5-trimethylpiperazin-1-yl]phenyl]-2-(trifluoromethyl)benzamide] was tested. Which pKd did it give?
A: The pKd was 8.47.

Q: How did the pKd turn out when C[C@@H]1CN(c2cc(F)c(-c3cnc(N4CCNCC4)nc3)cc2NC(=O)c2ccc(F)cc2C(F)(F)F)C[C@H](C)N1C [Example 546, 4-fluoro-N-[4-fluoro-5-(2-piperazin-1-ylpyrimidin-5-yl)-2-[(3R,5S)-3,4,5-trimethylpiperazin-1-yl]phenyl]-2-(trifluoromethyl)benzamide] was run?
A: Its pKd is 8.68.

Q: How did the pKd turn out when C[C@@H]1CN(c2cc(F)c(-c3ccc(N4CCOCC4)nc3)cc2NC(=O)c2ccc(F)cc2C(F)(F)F)C[C@H](C)N1C [Example 547, 4-fluoro-N-[4-fluoro-5-(6-morpholin-4-ylpyridin-3-yl)-2-[(3R,5S)-3,4,5-trimethylpiperazin-1-yl]phenyl]-2-(trifluoromethyl)benzamide] was run?
A: The pKd was 8.82.

Q: With C[C@@H]1CN(c2cc(F)c(-c3ccc(N4CCNCC4)cc3)cc2NC(=O)c2c[nH]c(=O)cc2C(F)(F)F)C[C@H](C)N1C [Example 549, N-[4-fluoro-5-(4-piperazin-1-ylphenyl)-2-[(3R,5S)-3,4,5-trimethylpiperazin-1-yl]phenyl]-6-oxo-4-(trifluoromethyl)-1H-pyridine-3-carboxamide] as the compound, how does the pKd read?
A: The pKd was 9.10.

Q: How did the pKd turn out when C[C@@H]1CN(c2cc(F)c(-c3ccc(F)c(C(N)=O)c3)cc2NC(=O)c2c[nH]c(=O)cc2C(F)(F)F)C[C@H](C)N1C [Example 550, N-[5-(3-carbamoyl-4-fluorophenyl)-4-fluoro-2-[(3R,5S)-3,4,5-trimethylpiperazin-1-yl]phenyl]-6-oxo-4-(trifluoromethyl)-1H-pyridine-3-carboxamide] was run?
A: Its pKd is 8.60.
